The values below come from patent US10899754B2, “Modulators of indoleamine 2,3-dioxygenase” (GLAXOSMITHKLINE INTELLECTUAL PROPERTY DEVELOPMENT LIMITED, priority 2016, dated 2021).

Data set [1] has as its system human peripheral blood mononuclear cells (PBMC). Description: PBMC cytotoxicity assay (CellTiter-Glo). In kind it is cell-based. To be noted: 2 days, pCC50. The procedure: (§1) Compounds of the present invention were tested via high-throughput cellular assays utilizing detection of kynurenine via mass spectrometry and cytotoxicity as end-points. For the mass spectrometry and cytotoxicity assays, human peripheral blood mononuclear cells (PBMC) (PB003F; AllCells®, Alameda, Calif.) were stimulated with human interferon-γ (IFN-γ) (Sigma-Aldrich Corporation, St. Louis, Mo.) and lipopolysaccharide from Salmonella minnesota (LPS) (Invivogen, San Diego, Calif.) to induce the expression of indoleamine 2, 3-dioxygenase (IDO1). Compounds with IDO1 inhibitory properties decreased the amount of kynurenine produced by the cells via the tryptophan catabolic pathway. Cellular toxicity due to the effect of compound treatment was measured using CellTiter-Glo® reagent (CTG) (Promega Corporation, Madison, Wis.), which is based on luminescent detection of ATP, an indicator of metabolically active cells.
(§2) In preparation for the assays, test compounds were serially diluted 3-fold in DMSO from a typical top concentration of 1 mM or 5 mM and plated at 0.5 μL in 384-well, polystyrene, clear bottom, tissue culture treated plates with lids (Greiner Bio-One, Kremsmünster, Austria) to generate 11-point dose response curves. Low control wells (0% kynurenine or 100% cytotoxicity) contained either 0.5 μL of DMSO in the presence of unstimulated (−IFN-γ/−LPS) PBMCs for the mass spectrometry assay or 0.5 μL of DMSO in the absence of cells for the cytotoxicity assay, and high control wells (100% kynurenine or 0% cytotoxicity) contained 0.5 μL of DMSO in the presence of stimulated (+IFN-γ/+LPS) PBMCs for both the mass spectrometry and cytotoxicity assays.
(§3) Frozen stocks of PBMCs were washed and recovered in RPMI 1640 medium (Thermo Fisher Scientific, Inc., Waltham, Mass.) supplemented with 10% v/v heat-inactivated fetal bovine serum (FBS) (Thermo Fisher Scientific, Inc., Waltham, Mass.), and 1× penicillin-streptomycin antibiotic solution (Thermo Fisher Scientific, Inc., Waltham, Mass.). The cells were diluted to 1,000,000 cells/mL in the supplemented RPMI 1640 medium. 50 μL of either the cell suspension, for the mass spectrometry assay, or medium alone, for the cytotoxicity assay, were added to the low control wells, on the previously prepared 384-well compound plates, resulting in 50,000 cells/well or 0 cells/well respectively. IFN-γ and LPS were added to the remaining cell suspension at final concentrations of 100 ng/ml and 50 ng/ml respectively, and 50 μL of the stimulated cells were added to all remaining wells on the 384-well compound plates. The plates, with lids, were then placed in a 37° C., 5% CO2 humidified incubator for 2 days.
(§4) Following incubation, the 384-well plates were removed from the incubator and allowed to equilibrate to room temperature for 30 minutes. For the cytotoxicity assay, CellTiter-Glo® was prepared according to the manufacturer's instructions, and 40 μL were added to each plate well. After a twenty minute incubation at room temperature, luminescence was read on an EnVision® Multilabel Reader (PerkinElmer Inc., Waltham, Mass.). For the mass spectrometry assay, 10 μL of supernatant from each well of the compound-treated plates were added to 40 μL of acetonitrile, containing 10 μM of an internal standard for normalization, in 384-well, polypropylene, V-bottom plates (Greiner Bio-One, Kremsmünster, Austria) to extract the organic analytes. Following centrifugation at 2000 rpm for 10 minutes, 10 μL from each well of the acetonitrile extraction plates were added to 90 μL of sterile, distilled H2O in 384-well, polypropylene, V-bottom plates for analysis of kynurenine and the internal standard on the RapidFire 300 (Agilent Technologies, Santa Clara, Calif.) and 4000 QTRAP MS (SCIEX, Framingham, Mass.). MS data were integrated using Agilent Technologies' RapidFire Integrator software, and data were normalized for analysis as a ratio of kynurenine to the internal standard. […]

The target in data set [2] is indoleamine 2, 3-dioxygenase (IDO1) (Homo sapiens, UniProt P14902). The experiment in a line: IDO1 PBMC RapidFire MS assay (kynurenine detection by mass spectrometry). The class given is cell-based. Set-up: to induce the expression of indoleamine 2, 3-dioxygenase (IDO1); host or cells: human PBMC stimulated with IFN-gamma and LPS. To be noted: human PBMC stimulated with IFN-γ and LPS, 2 days, pIC50, read-out: PBMC PXC50 (converted). Here is the method:
IDO1 PBMC RapidFire MS Assay
as §1, §2, §3, §4

Sequence of indoleamine 2, 3-dioxygenase (IDO1) (P14902 whole entry): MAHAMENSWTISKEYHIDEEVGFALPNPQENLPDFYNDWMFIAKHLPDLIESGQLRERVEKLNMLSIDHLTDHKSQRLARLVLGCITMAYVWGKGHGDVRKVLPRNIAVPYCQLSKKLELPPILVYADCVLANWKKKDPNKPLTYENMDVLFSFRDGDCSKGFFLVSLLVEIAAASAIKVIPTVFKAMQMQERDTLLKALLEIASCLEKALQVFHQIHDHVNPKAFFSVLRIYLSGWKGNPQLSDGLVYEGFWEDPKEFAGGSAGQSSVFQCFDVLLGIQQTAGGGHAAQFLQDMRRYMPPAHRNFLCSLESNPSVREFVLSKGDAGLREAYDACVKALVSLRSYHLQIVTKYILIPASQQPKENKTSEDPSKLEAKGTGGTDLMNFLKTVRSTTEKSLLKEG

For the compound `CNC(=O)c1n[nH]c(Nc2cc([C@H](C)CC(=O)O)ccc2N(CC(C)C)C2CCOCC2)n1` [example 237, (3R)-3-(3-{[3-(methylcarbamoyl)-1H-1,2,4-triazol-5-yl]amino}-4-[(2-methylpropyl)(oxan-4-yl)amino]phenyl)butanoic acid], the “PBMC TOX PXC50” value in data set [1] is less than 5. Further, in data set [2], the IC50 is 200 nM.
As for `CC(C)CN(c1ccc([C@H](C)CC(=O)O)cc1Nc1ccc(C(F)(F)F)cn1)C1CCOCC1` [Example 27, (R)-3-(4-(isobutyl(tetrahydro-2H-pyran-4-yl)amino)-3-((5-(trifluoromethyl)pyridin-2-yl)amino)phenyl)butanoic Acid], the “PBMC TOX PXC50” value in data set [1] was less than 5. For the same compound, the IC50 in data set [2] was 3.98 nM.
On to `COCc1nc(Nc2cc([C@H](C)CC(=O)O)ccc2N(CC(C)C)[C@H]2CC[C@@H](OC)CC2)n[nH]1` (racemic) [example 243, (3RS)-3-(3-{[5-(methoxymethyl)-1H-1,2,4-triazol-3-yl]amino}-4-[(2-methylpropyl)[(1rs&,4rs&)-4-methoxycyclohexyl]ami-no]phenyl)butanoic acid], for which the “PBMC TOX PXC50” value in data set [1] was less than 5. For the same compound, the IC50 in data set [2] is 31.6 nM.
`CC(C)CN(c1ccc([C@H](C)CC(=O)O)cc1Nc1cnc(C(N)=O)nc1)C1CCOCC1` [example 263, (3R)-3-{3-[(2-carbamoylpyrimidin-5-yl)amino]-4-[(2-methylpropyl)(oxan-4-yl)amino]phenyl}butanoic acid]: the “PBMC TOX PXC50” value in data set [1] is less than 5. The IC50 in data set [2] was 501 nM.
For `CC(C)CN(CC(C)C)c1ccc([C@H](C)CC(=O)O)cc1Nc1nc(C(F)(F)F)cn1COCC[Si](C)(C)C` [example 220, (3R)-3-{4-[bis(2-methylpropyl)amino]-3-{[4-(trifluoromethyl)-1-{[2-(trimethylsilyl)ethoxy]methyl}-1H-imidazol-2-yl]amino}phenyl}butanoic acid], the “PBMC TOX PXC50” value in data set [1] is reported as less than 5. The IC50 in data set [2] was 398 nM.
On to `CC(C)CN(c1ccc([C@H](C)CC(=O)O)cc1Nc1nc(C(=O)NC2CC2)c[nH]1)C1CCOCC1` [example 236, (3R)-3-(3-{[4-(cyclopropylcarbamoyl)-1H-imidazol-2-yl]amino}-4-[(2-methylpropyl)(oxan-4-yl)amino]phenyl)butanoic acid], for which the “PBMC TOX PXC50” value in data set [1] was less than 5. Moreover, the IC50 in data set [2] is greater than 10000 nM.
On to `COC(=O)c1c[nH]c(Nc2cc([C@H](C)CC(=O)O)ccc2N(CC(C)C)C2CCCCC2)n1` [Example 77, (R)-3-(4-(cyclohexyl(isobutyl)amino)-3-((4-(methoxycarbonyl)-1H-imidazol-2-yl)amino)phenyl)butanoic Acid], for which, in data set [1], the “PBMC TOX PXC50” value is reported as less than 5. In addition, in data set [2], the IC50 is 1.58 nM.
As to `CC(C)CN(c1ccc([C@H](C)CC(=O)O)cc1Nc1ncc(C(N)=O)cn1)C1CCOCC1` [example 248, (3R)-3-{3-[(5-carbamoylpyrimidin-2-yl)amino]-4-[(2-methylpropyl)(oxan-4-yl)amino]phenyl}butanoic acid], the “PBMC TOX PXC50” value in data set [1] was less than 5. For the same compound, the IC50 in data set [2] is greater than 10000 nM.
`CC(C)CN(c1ccc([C@H](C)CC(=O)O)cc1Nc1n[nH]c(C(F)(F)F)n1)C1CCCCC1` [Example 78, (R)-3-(4-(cyclohexyl(isobutyl)amino)-3-((5-(trifluoromethyl)-1H-1,2,4-triazol-3-yl)amino)phenyl)butanoic Acid]: the “PBMC TOX PXC50” value in data set [1] was less than 5. In data set [2], the IC50 is 3.16 nM.
Regarding `CC(C)CN(c1ccc(C(C)CC(=O)O)cc1Nc1nnc(C(N)=O)s1)C1CCCCC1` (centres unmarked) [Example 80, 3-(3-((5-carbamoyl-1,3,4-thiadiazol-2-yl)amino)-4-(cyclohexyl(isobutyl)amino)phenyl)butanoic], the “PBMC TOX PXC50” value in data set [1] is listed as less than 5. Moreover, the IC50 in data set [2] is 1.58 nM.
For `CC(C)CN(c1ccc([C@H](C)CC(=O)O)cc1Nc1n[nH]c(Cl)n1)C1CCOCC1` [Example 34, (R)-3-(3-((5-Chloro-1H-1,2,4-triazol-3-yl)amino)-4-(isobutyl(tetrahydro-2H-pyran-4-yl)amino)phenyl)butanoic Acid] the same measures were less than 5 and 6.31 nM.
`CC(C)CN(c1ccc([C@H](C)CC(=O)O)cc1Nc1ccc(C(N)=O)nn1)C1CCOCC1` [example 253, (3R)-3-{3-[(6-carbamoylpyridazin-3-yl)amino]-4-[(2-methylpropyl)(oxan-4-yl)amino]phenyl}butanoic acid]: in data set [1], the “PBMC TOX PXC50” value was less than 5. Also, in data set [2], the IC50 is 316 nM.
For `CO[C@H](C)CN(CC(C)C)c1ccc([C@H](C)CC(=O)O)cc1Nc1nc(C(F)(F)F)ns1` [Example 96, (R)-3-(4-(isobutyl((R)-2-methoxypropyl)amino)-3-((3-(trifluoromethyl)-1,2,4-thiadiazol-5-yl)amino)phenyl)butanoic Acid], the “PBMC TOX PXC50” value in data set [1] was less than 5. Moreover, the IC50 in data set [2] is 10 nM.
For `CC(C)CN(c1ccc([C@H](C)CC(=O)NS(=O)(=O)N(C)C)cc1Nc1nc(C(F)(F)F)ns1)C1CCOCC1` [Example 108, (R)—N—(N,N-Dimethylsulfamoyl)-3-(4-(isobutyl(tetrahydro-2H-pyran-4-yl)amino)-3-((3-(trifluoromethyl)-1,2,4-thiadiazol-5-yl)amino)phenyl)butanamide] the same measures were less than 5 and 2.51 nM.
`CC(C)CN(CC(C)C)c1ccc(C(C)CC(=O)O)cc1Nc1nnn(C(C)C)n1` (centres unmarked) [example 250, 3-{4-[bis(2-methylpropyl)amino]-3-{[2-(propan-2-yl)-2H-1,2,3,4-tetrazol-5-yl]amino}phenyl}butanoic acid]: the “PBMC TOX PXC50” value in data set [1] is given as less than 5. Moreover, the IC50 in data set [2] was 1260 nM.
For `CC(C)CN(c1ccc(-c2ccncc2C(=O)O)cc1Nc1nc(C(F)(F)F)ns1)C1CCOCC1` [example 267, 4-{4-[(2-methylpropyl)(oxan-4-yl)amino]-3-{[3-(trifluoromethyl)-1,2,4-thiadiazol-5-yl]amino}phenyl}pyridine-3-carboxylic acid], the “PBMC TOX PXC50” value in data set [1] is given as less than 5. In data set [2], the IC50 is 39.8 nM.
The corresponding values for `CC(C)CN(c1ccc(C(C)CC(=O)O)cc1Nc1nncs1)C1CCCCC1` (centres unmarked) [example 235, 3-{4-[cyclohexyl(2-methylpropyl)amino]-3-[(1,3,4-thiadiazol-2-yl)amino]phenyl}butanoic acid] are less than 5 and 20 nM.
In the case of `CC(C)CN(c1ccc([C@H](C)CC(=O)O)cc1Nc1nc(C(F)(F)F)ns1)C1CCN(C(=O)C2CC2)CC1` [Example 64, (R)-3-(4-((1-(cyclopropanecarbonyl)piperidin-4-yl) (isobutyl)amino)-3-((3-(trifluoromethyl)-1,2,4-thiadiazol-5-yl)amino)phenyl)butanoic Acid], the “PBMC TOX PXC50” value in data set [1] is less than 5. Also, the IC50 in data set [2] was 1 nM.
For `CC(=O)N1CCC(N(CC(C)C)c2ccc([C@H](C)CC(=O)O)cc2Nc2nc(C(F)(F)F)ns2)CC1` [Example 70, (R)-3-(4-((1-acetylpiperidin-4-yl) (isobutyl)amino)-3-((3-(trifluoromethyl)-1,2,4-thiadiazol-5-yl)amino)phenyl)butanoic Acid] the same measures were less than 5 and 3.16 nM.
